Experimental data from publication PMC4608580, “Synthesis and Evaluation of Biological Activity of Antimicrobial – Pro-Proliferative Peptide Conjugates” (PLoS ONE, 2015).

Key:
B. subtilis = type: cell-based; conditions: broth microdilution, Mueller-Hinton broth, approximately 10^5 CFU/mL, 37°C, 24 h, absorbance 590 nm, at least triplicate
Method: (§1) Luria-Bertani broth (LB) and Sabouraud Dextrose broth (SB) (Biocorp, Poland) were used for cultivation of bacteria and fungi strains, respectively. Antimicrobial activity of peptides was analyzed through determination of MIC (minimal inhibitory concentration) parameter according to the standard microdilution technique performed on 96-well plates. Mueller-Hinton broth (MHB) was used as the working medium for all bacterial strains, while in case of fungi it was additionally supplemented with 2% glucose.
(§2) Briefly, inoculum was prepared from freshly grown cultures of microorganisms being at their exponential phase of growth. Each well of 96-well plates containing 100 μL of serially diluted peptides in PBS (phosphate buffer saline) at concentration ranging from 2 to 250 μg/mL were inoculated with 100 μL of approximately 10^5 CFU/mL of bacterial suspension or about 2.5 x 10^3 CFU/mL of fungi suspended in a double concentrated Mueller-Hinton broth (supplemented with 2% glucose for Candida spps.). Then plates were incubated overnight at 37°C and absorbance was read at 590 nm after 24 h. Cultures without peptide were treated as positive control, while uninoculated Mueller-Hinton broth was defined as negative control. All measurements were run at least in triplicate.
(§3) All peptides were screened against the wide range of microorganisms, including Gram-negative, Gram-positive bacteria and fungi from Candida species (Table 2). Broth microdilution method for MIC determination was used as a standard procedure. All assays were performed on liquid Mueller-Hinton broth, which was additionally supplemented with 2% glucose when fungicidal activity towards Candida spps. was analyzed.

B. cereus = type: cell-based; conditions: broth microdilution, Mueller-Hinton broth, approximately 10^5 CFU/mL, 37°C, 24 h, absorbance 590 nm, at least triplicate
Method: as §1, §2, §3

[1] = tested on: Staphylococcus epidermidis (PCM 2118); type: cell-based; conditions: broth microdilution, Mueller-Hinton broth, approximately 10^5 CFU/mL, 37°C, 24 h, absorbance 590 nm, at least triplicate
Excerpt: (§4) Escherichia coli (PCM 2057), Staphylococcus aureus (PCM 2054), Staphylococcus epidermidis (PCM 2118), Pseudomonas aeruginosa (PCM 499) were obtained from Polish Collection of Microorganisms. Fungi strains Candida albicans (CCM 8186), Candida glabrata (CCM 8270), Candida parapsilosis (CCM 8260), Candida krusei (CCM 8271), Candida tropicalis (CCM 8264) were acquired from Czech Collection of Microorganisms.
as §1, §2, §3

[2] = tested on: Candida parapsilosis (CCM 8260); type: cell-based; conditions: broth microdilution, Mueller-Hinton broth + 2% glucose, about 2.5 x 10^3 CFU/mL, 37°C, 24 h, absorbance 590 nm, at least triplicate
Excerpt: as §4, §1, §2, §3

[3] = tested on: Candida tropicalis (CCM 8264); type: cell-based; conditions: broth microdilution, Mueller-Hinton broth + 2% glucose, about 2.5 x 10^3 CFU/mL, 37°C, 24 h, absorbance 590 nm, at least triplicate
Excerpt: as §4, §1, §2, §3

[4] = tested on: Candida glabrata (CCM 8270); type: cell-based; conditions: broth microdilution, Mueller-Hinton broth + 2% glucose, about 2.5 x 10^3 CFU/mL, 37°C, 24 h, absorbance 590 nm, at least triplicate
Excerpt: as §4, §1, §2, §3

[5] = tested on: Escherichia coli (PCM 2057); type: cell-based; conditions: broth microdilution, Mueller-Hinton broth, approximately 10^5 CFU/mL, 37°C, 24 h, absorbance 590 nm, at least triplicate
Excerpt: as §4, §1, §2, §3

[6] = tested on: Staphylococcus aureus (PCM 2054); type: cell-based; conditions: broth microdilution, Mueller-Hinton broth, approximately 10^5 CFU/mL, 37°C, 24 h, absorbance 590 nm, at least triplicate
Excerpt: as §4, §1, §2, §3

[7] = tested on: Pseudomonas aeruginosa (PCM 499); type: cell-based; conditions: broth microdilution, Mueller-Hinton broth, approximately 10^5 CFU/mL, 37°C, 24 h, absorbance 590 nm, at least triplicate
Excerpt: as §4, §1, §2, §3

[8] = tested on: Candida krusei (CCM 8271); type: cell-based; conditions: broth microdilution, Mueller-Hinton broth + 2% glucose, about 2.5 x 10^3 CFU/mL, 37°C, 24 h, absorbance 590 nm, at least triplicate
Excerpt: as §4, §1, §2, §3

[9] = tested on: Candida albicans (CCM 8186); type: cell-based; conditions: broth microdilution, Mueller-Hinton broth + 2% glucose, about 2.5 x 10^3 CFU/mL, 37°C, 24 h, absorbance 590 nm, peptide 2 to 250 μg/mL, at least triplicate
Excerpt: as §4, §1, §2, §3

[10] = Circular dichroism, alpha-helical content; type: physicochemical; conditions: CD, mean residue ellipticity at 222 nm (Eq 1), peptide 0.4 mg/ml in 30 mM SDS, room temperature
Method: Circullar dichroism spectra of analyzed compounds were recorded on a Jasco J-815 spectropolarimeter using a quartz cell of 1 mm path length between 195–260 nm at room temperature. Peptides at concentration of 0.4 mg/ml were dissolved in water or 30 mM SDS solution. SDS micelle system was used as the simplified model of negatively charged lipid membrane. On the basis of the obtained results the alpha-helical content was determined from the mean residue ellipticities at 222 nm according to Eq 1: %Helix=([θ]obs/([θ]helixx(1−2.57/l))x100, (1) where [θ] obs is the experimentally observed mean-residue ellipticity at 222 nm, [θ]helix is the theoretical ellipticity of peptide of infinite length with a 100% helix population, taken as -39 500 deg·cm^2/dmol, and l is the number of peptide bonds.
Circular dichroism method was applied to obtain a basic information about the secondary structure of the synthesized compounds (with the exception of CAR, CAR3, DAL, CTEN2) in two chemical environments, water and 30 mM SDS. As expected, all the tested compounds in water adopted a random-coil structure, while in the presence of 30 mM SDS most of them formed α-helices with characteristic negative minima around 208 and 220 nm. […] The examples of CD spectra for selected peptides could be seen in supporting information (Figure A in S1 File). On the basis of the experimentally obtained values of the mean residue ellipticities of peptides at 222 nm their alpha-helical content was calculated according to the Eq 1 (Table 1).

With “YAGFLR-PEG-IKKILSKIKKLL-NH2 [DAL-PEG-DK5, conjugate of dalargin and DK5 joined by PEG-linker]” the “MIC B. subtilis” value (B. subtilis) was 2.0 µg/mL, the “MIC B. cereus” value (B. cereus) was 25 µg/mL and the “MIC S. epidermidis” value [1] was 7.8 µg/mL. For the same substance, the “MIC C. parapsilosis” value [2] was 2.0 µg/mL, the “MIC C.tropicalis” value [3] was <2 µg/mL and the “MIC C.glabrata” value [4] was 125 µg/mL. For the same substance, the “MIC E.coli” value [5] was 25 µg/mL, the “MIC S.aureus” value [6] was 50 µg/mL and the “MIC P. aeruginosa” value [7] was 25 µg/mL. For the same substance, the “MIC C.krusei” value [8] was 3.9 µg/mL, the “MIC C. albicans” value [9] was 25 µg/mL and the α-helicity [10] was 35%.

In the case of “IKKILSKIKKLL-NH2 [DK5, Lys-rich derivative of amphibian AMP temporin-1CEb, …-NH2, reference compound]”, the “MIC B. subtilis” value (B. subtilis) is reported as 15.6 µg/mL, the “MIC B. cereus” value (B. cereus) is reported as >125 µg/mL and the “MIC S. epidermidis” value [1] is reported as 7.8 µg/mL. The “MIC C. parapsilosis” value [2] was 31.3 µg/mL, the “MIC C.tropicalis” value [3] was < 2 µg/mL and the “MIC C.glabrata” value [4] was 62.5 µg/mL. The “MIC E.coli” value [5] was >125 µg/mL, the “MIC S.aureus” value [6] was >125 µg/mL and the “MIC P. aeruginosa” value [7] was 50 µg/mL. The “MIC C.krusei” value [8] was 7.8 µg/mL, the “MIC C. albicans” value [9] was 31.3 µg/mL and the α-helicity [10] was 29%.

In the case of “YAGFLR-PEG-IKKILSKIKKLLK-NH2 [DAL-PEG-LK6, conjugate of dalargin and LK6 joined by PEG-linker]”, the “MIC B. subtilis” value (B. subtilis) is reported as 7.8 µg/mL, the “MIC B. cereus” value (B. cereus) is reported as 12.5 µg/mL and the “MIC S. epidermidis” value [1] is reported as 7.8 µg/mL. The “MIC C. parapsilosis” value [2] was 2.0 µg/mL, the “MIC C.tropicalis” value [3] was 3.9 µg/mL and the “MIC C.glabrata” value [4] was >125 µg/mL. The “MIC E.coli” value [5] was 25 µg/mL, the “MIC S.aureus” value [6] was 25 µg/mL and the “MIC P. aeruginosa” value [7] was 25 µg/mL. For the same substance, the “MIC C.krusei” value [8] was 7.8 µg/mL, the “MIC C. albicans” value [9] was 25 µg/mL and the α-helicity [10] was 25%.
